According to patent publication US8058475B2, “Substituted cyclohexylmethyl compounds” (Gruenenthal GmbH, priority 2005, dated 2011):

Target: human μ-opiate receptor (Homo sapiens, UniProt P35372)
Test: Affinity for the human μ-opiate receptor ([3H]-naloxone displacement, SPA, CHO-K1 membrane preparation)
Type: binding
Conditions: for inhibition at 1 µM: read-out: μ-Opioid receptor, % inhibition [1 μM]; for Ki: read-out: μ-Opioid receptor, Ki

Chain of human μ-opiate receptor (P35372 whole entry): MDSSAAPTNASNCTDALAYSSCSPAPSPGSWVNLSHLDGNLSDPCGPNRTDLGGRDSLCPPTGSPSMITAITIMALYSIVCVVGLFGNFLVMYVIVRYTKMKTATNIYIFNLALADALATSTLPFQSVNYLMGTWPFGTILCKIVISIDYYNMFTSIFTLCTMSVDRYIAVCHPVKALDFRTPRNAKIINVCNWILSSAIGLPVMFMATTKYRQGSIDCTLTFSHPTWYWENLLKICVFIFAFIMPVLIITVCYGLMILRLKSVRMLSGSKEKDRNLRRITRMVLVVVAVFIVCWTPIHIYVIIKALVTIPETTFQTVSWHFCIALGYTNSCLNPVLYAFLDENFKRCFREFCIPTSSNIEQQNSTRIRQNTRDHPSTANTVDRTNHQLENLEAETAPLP

Structure (SMILES) | inhibition at 1 µM | Ki | μ-Opioid receptor, % inhibition [1 μM] | μ-Opioid receptor, % inhibition [1 μM] (1 μM test substance, inhibition of specific [3H]-naloxone binding)
Cc1oc(-c2ccccc2)cc1C(=O)NCC1CCC(C(c2ccc(Cl)cc2)N(C)C)CC1 (centres unmarked) [compound 330, 2-methyl-5-phenyl-furan-3-carboxylic acid {4-[(4-chloro-phenyl)-dimethylamino-methyl]-cyclohexylmethyl}-amide] | 94% | 39 nM |  | 
CN(C)C(c1ccc(F)cc1)C1CCC(CCNC(=O)c2ccccc2F)CC1 (centres unmarked) [compound 427, N-(2-{4-[dimethylamino-(4-fluoro-phenyl)-methyl]-cyclohexyl}-ethyl)-2-fluoro-benzamide] | 84% | 40 nM |  | 
CN(C)C(c1cccc(F)c1)C1CCC(CNC(=O)c2csc(-c3ccccc3)n2)CC1 (centres unmarked) [compound 365, 2-phenyl-thiazole-4-carboxylic acid {4-[dimethylamino-(3-fluoro-phenyl)-methyl]-cyclohexylmethyl}-amide] | 85% | 74 nM |  | 
Cc1cc(C(=O)NC2CCC(C(c3ccccc3)N(C)C)CC2)n(C(C)(C)C)n1 (centres unmarked) [compound 223, 2-tert-butyl-5-methyl-2H-pyrazole-3-carboxylic acid [4-(dimethylamino-phenyl-methyl)-cyclohexyl]-amide] | 88% | 20 nM |  | 
CN(C)C(c1ccccc1)C1CCC(CCNC(=O)C(c2ccccc2)c2ccccc2)CC1 (centres unmarked) [compound 448, N-{2-[4-(dimethylamino-phenyl-methyl)-cyclohexyl]-ethyl}-2,2-diphenyl-acetamide] | 95% | 33 nM |  | 
CCC(C)C(=O)NCC1CCC(C(c2cccc(F)c2)N(C)C)CC1 (single isomer, unassigned) [compound 378, N-{4-[dimethylamino-(3-fluoro-phenyl)-methyl]-cyclohexylmethyl}-2-methyl-butyramide] |  | 55 nM | 83% | 
CN(C)C(c1ccccc1)C1CCC(CCNC(=O)c2csc(-c3ccc4c(c3)CCO4)n2)CC1 (centres unmarked) [compound 468, 2-(2,3-dihydro-benzofuran-5-yl)-thiazole-4-carboxylic acid {2-[4-(dimethylamino-phenyl-methyl)-cyclohexyl]-ethyl}-amide] | 83% | 160 nM |  | 
CN(C)C(c1cccc(F)c1)C1CCC(CCNC(=O)c2cc(F)cc(F)c2)CC1 (centres unmarked) [compound 435, N-(2-{4-[dimethylamino-(3-fluoro-phenyl)-methyl]-cyclohexyl}-ethyl)-3,5-difluoro-benzamide] | 99% | 14 nM |  | 
CN(C)C(c1ccc(F)cc1)C1CCC(NC(=O)c2ccc(F)c(Cl)c2)CC1 (centres unmarked) [compound 280, 3-chloro-N-{4-[dimethylamino-(4-fluoro-phenyl)-methyl]-cyclohexyl}-4-fluoro-benzamide] | 73% | 310 nM |  | 
CN(C)C(c1cccc(F)c1)C1CCC(NC(=O)Cc2ccc(Cl)cc2)CC1 (centres unmarked) [compound 274, 2-(4-chloro-phenyl)-N-{4-[dimethylamino-(3-fluoro-phenyl)-methyl]-cyclohexyl}-acetamide] | 74% | 99 nM |  | 
CN(C)C(c1cccc(F)c1)C1CCC(CNC(=O)c2ccc(F)c(C(F)(F)F)c2)CC1 (centres unmarked) [compound 350, N-{4-[dimethylamino-(3-fluoro-phenyl)-methyl]-cyclohexylmethyl}-4-fluoro-3-trifluoromethyl-benzamide] | 89% | 37 nM |  | 
CN(C)C(c1cccc(F)c1)C1CCC(CCNC(=O)c2c(F)cccc2F)CC1 (centres unmarked) [compound 462, N-(2-{4-[dimethylamino-(3-fluoro-phenyl)-methyl]-cyclohexyl}-ethyl)-2,6-difluoro-benzamide] | 91% | 55 nM |  | 
CN(C)C(CCc1ccccc1)C1CCC(NC(=O)c2ccc(F)cc2)CC1 (centres unmarked) [compound 258, N-[4-(1-dimethylamino-3-phenyl-propyl)-cyclohexyl]-4-fluoro-benzamide] | 79% | 68 nM |  | 
CN(C)C(c1ccccc1)C1CCC(CCNC(=O)c2ccccc2Cl)CC1 (centres unmarked) [compound 402, 2-chloro-N-{2-[4-(dimethylamino-phenyl-methyl)-cyclohexyl]-ethyl}-benzamide] | 96% | 7.9 nM |  | 
COc1ccccc1C(=O)NCCC1CCC(C(c2ccc(F)cc2)N(C)C)CC1 (centres unmarked) [compound 432, N-(2-{4-[dimethylamino-(4-fluoro-phenyl)-methyl]-cyclohexyl}-ethyl)-2-methoxy-benzamide] | 95% | 18 nM |  | 
CN(C)C(c1cccc(F)c1)C1CCC(CCNC(=O)c2ccccc2Cl)CC1 (centres unmarked) [compound 404, 2-chloro-N-(2-{4-[dimethylamino-(3-fluoro-phenyl)-methyl]-cyclohexyl}-ethyl)-benzamide] | 97% | 19 nM |  | 
CN(C)C(c1cccc(F)c1)C1CCC(NC(=O)CC(C)(C)C)CC1 (centres unmarked) [compound 251, N-{4-[dimethylamino-(3-fluoro-phenyl)-methyl]-cyclohexyl}-3,3-dimethyl-butyramide] | 81% | 91 nM |  | 
Cc1ccc(Oc2ncccc2C(=O)NCC2CCC(C(c3cccc(F)c3)N(C)C)CC2)cc1 (centres unmarked) [compound 337, N-{4-[dimethylamino-(3-fluoro-phenyl)-methyl]-cyclohexylmethyl}-2-p-tolyloxy-nicotinamide] | 92% |  |  | 

Structure (SMILES) | inhibition at 1 µM | Ki | μ-Opioid receptor, % inhibition [1 μM] | μ-Opioid receptor, % inhibition [1 μM] (1 μM test substance, inhibition of specific [3H]-naloxone binding)
CN(C)C(c1ccccc1)C1CCC(CNC(=O)C2(c3ccc(Cl)cc3)CCCC2)CC1 (centres unmarked) [compound 339, 1-(4-chloro-phenyl)-cyclopentane-carboxylic acid [4-(dimethylamino-phenyl-methyl)-cyclohexylmethyl]-amide] |  | 25 nM | 91% | 
CC(Oc1ccccc1)C(=O)NC1CCC(C(c2ccccc2)N(C)C)CC1 (centres unmarked) [compound 230, N-[4-(dimethylamino-phenyl-methyl)-cyclohexyl]-2-phenoxy-propionamide] | 86% | 21 nM |  | 
CN(C)C(c1ccccc1)C1CCC(CCNC(=O)c2cc(F)cc(F)c2)CC1 (centres unmarked) [compound 433, N-{2-[4-(dimethylamino-phenyl-methyl)-cyclohexyl]-ethyl}-3,5-difluoro-benzamide] | 89% | 3.8 nM |  | 
CN(C)C(c1ccccc1)C1CCC(CNC(=O)Cc2ccccc2)CC1 (centres unmarked) [compound 306, N-[4-(dimethylamino-phenyl-methyl)-cyclohexylmethyl]-2-phenyl-acetamide] | 98% | 9.9 nM |  | 
Cc1cc(C(=O)NC2CCC(C(c3ccccc3)N(C)C)CC2)c(C)o1 (centres unmarked) [compound 279, 2,5-dimethyl-furan-3-carboxylic acid [4-(dimethylamino-phenyl-methyl)-cyclohexyl]-amide] | 74% | 140 nM |  | 
CC(Oc1ccccc1)C(=O)NCC1CCC(C(c2cccc(F)c2)N(C)C)CC1 (single isomer, unassigned) [compound 341, N-{4-[dimethylamino-(3-fluoro-phenyl)-methyl]-cyclohexylmethyl}-2-phenoxy-propionamide] |  | 13 nM |  | 
Cc1cc(C(=O)NC2CCC(C(c3cccs3)N(C)C)CC2)n(C(C)(C)C)n1 (centres unmarked) [compound 201, 2-tert-butyl-5-methyl-2H-pyrazole-3-carboxylic acid [4-(dimethylamino-thiophen-2-yl-methyl)-cyclohexyl]-amide] | 94% | 16 nM |  | 
CN(C)C(c1cccc(F)c1)C1CCC(CNC(=O)Cc2cccs2)CC1 (centres unmarked) [compound 343, N-{4-[dimethylamino-(3-fluoro-phenyl)-methyl]-cyclohexylmethyl}-2-thiophen-2-yl-acetamide] | 90% |  |  | 
CN(C)C(c1ccccc1)C1CCC(CCNC(=O)c2ccc(C#N)cc2)CC1 (centres unmarked) [compound 421, 4-cyano-N-{2-[4-(dimethylamino-phenyl-methyl)-cyclohexyl]-ethyl}-benzamide] | 80% | 91 nM |  | 
CCC(C(=O)NCC1CCC(C(c2ccccc2)N(C)C)CC1)c1ccccc1 (centres unmarked) [compound 321, N-[4-(dimethylamino-phenyl-methyl)-cyclohexylmethyl]-2-phenyl-butyramide] | 95% | 22 nM |  | 
CN(C)C(c1cccs1)C1CCC(CNC(=O)c2ccccc2Br)CC1 (centres unmarked) [compound 296, 2-bromo-N-[4-(dimethylamino-thiophen-2-yl-methyl)-cyclohexylmethyl]-benzamide] | 100% | 0.3 nM |  | 
CN(C)C(c1cccs1)C1CCC(CCNC(=O)c2cc(F)c(Cl)cc2Cl)CC1 (centres unmarked) [compound 440, 2,4-dichloro-N-{2-[4-(dimethylamino-thiophen-2-yl-methyl)-cyclohexyl]-ethyl}-5-fluoro-benzamide] | 95% | 15 nM |  | 
CCCCCC1(O)CCC(C(c2ccc(Cl)cc2)N(C)C)CC1 (centres unmarked) [compound 170, 4-[(4-chloro-phenyl)-dimethylamino-methyl]-1-pentyl-cyclohexanol] |  |  |  | 63%
Cc1ccc(C(=O)NC2CCC(C(c3cccs3)N(C)C)CC2)cc1 (centres unmarked) [compound 198, N-[4-(dimethylamino-thiophen-2-yl-methyl)-cyclohexyl]-4-methyl-benzamide] | 95% | 15 nM |  | 
CN(C)C(c1ccc(Cl)cc1)C1CCC(CCNC(=O)c2cccc(Cl)c2)CC1 (centres unmarked) [compound 399, 3-chloro-N-(2-{4-[(4-chloro-phenyl)-dimethylamino-methyl]-cyclohexyl}-ethyl)-benzamide] | 80% | 110 nM |  | 
COc1c(C(=O)NC2CCC(C(c3cccs3)N(C)C)CC2)csc1Cl (centres unmarked) [compound 195, 5-chloro-4-methoxy-thiophene-3-carboxylic acid [4-(dimethylamino-thiophen-2-yl-methyl)-cyclohexyl]-amide] | 96% | 15 nM |  | 
CN(C)C(c1cccs1)C1CCC(NC(=O)c2cccnc2Sc2ccc(Cl)cc2)CC1 (centres unmarked) [compound 218, 2-(4-chloro-phenylsulfanyl)-N-[4-(dimethylamino-thiophen-2-yl-methyl)-cyclohexyl]-nicotinamide] | 89% |  |  | 
